This is an account of results in patent US20030144350A1, “Fat accumulation-modulation compounds” (AdipoGenix, Inc., priority 2001, published 2003).

The conditions of data set [1]: mice, single injections; cited from earlier work.
For data set [2], the system named is primary human subcutaneous preadipocytes. Briefly: High throughput screening of fluorescent fatty acid (FA*) accumulation in differentiating human preadipocytes. The format is cell-based. The protocol: Growth medium was changed every three days. […] Cell plates were prewashed with FAB+, and then FA* was added. Cells were incubated with FA* for four hours, and then postwashed with FAB+ to remove unincorporated FA*. Cellular fluorescence of triglyceride droplets that have incorporated FA* was measured on a microplate reader. Efficacy of compounds on inhibiting FA* accumulation was determined by the following calculation: […]

For data set [3] the test system is unchanged. To be noted: for % Toxicity: Alamar Blue. The protocol:
Up to five cell strains of banked primary human subcutaneous preadipocytes were used for high throughput screening. Cells were grown in tissue culture flasks, maintained under standard incubation conditions (5% carbon dioxide, 37° C.) and split evenly when 100% confluent into two new tissue culture flasks (one cell division) in growth medium. Cells were split up to four times to produce enough cells for screening.
Two to five days before the experiment, adhered cells were detached with trypsin/EDTA, combined and seeded into 384-well plates at 100% confluency. On day zero, cells were incubated with […] to induce differentiation of preadipocytes into adipocytes (characterized by cell rounding, formation of triglyceride droplets, etc.). Growth medium was changed every three days. On day six, cells were incubated in triplicate with test compounds (supplied by ComGenex International, Inc., South San Francisco, USA) at various concentrations.
Compounds were first diluted in a phosphate-buffered saline solution with 0.1% fatty-acid free bovine serum albumin (BSA, to aid compound suspension), and then added to cells. Negative control cells were treated with DMSO, the solvent used for initially dissolving compounds, at 0.1% final concentration.
Subsequent determination of compound toxicity was measured by incubating cells with Alamar Blue (an indicator of cellular viability, purchased from BioSource International Inc., Camarillo, Calif., USA) for three to four hours before measuring fluorescence of the reduced compound. Toxicity of compounds was determined by the following calculation:
% Toxicity=100-(sample fluorescence/negative control fluorescence*100)
On the technique in general: Resazurin is reduced to fluorescent resorufin, in cell work by metabolically active cells.

Like-named read-outs stand apart in the source and are kept apart here.

On to `C=C1C(=O)OC(CCCCCCCC)C1C(=O)O` (stereo not drawn) [Compound C75], for which the “food eaten less than untreated littermates” value in data set [1] is 90%.

`N#CC(C#N)=NNc1ccc(OC(F)(F)F)cc1` [FCCP, Carbonyl cyanide p-(trifluoromethoxy)phenylhydrazone] registered an efficacy in data set [2] (10 μM) of 100%. Also, the Emax at 0.3 µM in data set [2] (Homo sapiens, FCCP 0.3 uM, inhibition of FA* accumulation, read-out: % Efficacy) stood at 42%. In addition, the Emax at 1 µM in data set [2] (Homo sapiens, FCCP 1 uM, inhibition of FA* accumulation, read-out: % Efficacy) was determined as 79%. Besides, the Emax at 3 µM in data set [2] (Homo sapiens, FCCP 3 uM, inhibition of FA* accumulation, read-out: % Efficacy) amounted to 90%. The toxicity in data set [3] (10 μM) was 100%. Also, the “% Toxicity” value is reported as −1% in data set [3] (FCCP 0.3 uM), −4% in data set [3] (FCCP 1 uM) and 5% in data set [3] (FCCP 3 uM).
